From PubChem BioAssay (NCI)
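In this assay, cells in 96-well plates receive the compound at five concentrations for 48 hours. Endpoints are linearly interpolated between the surrounding concentrations. The concentration for full growth arrest is given as TGI.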

Assays:
Assay in all cases: growth of human tumour cells (NCI), 48 h
MDA-MB-435 = test system: MDA-MB-435
KM12 colon = test system: KM12 colon
U251 CNS = test system: U251 CNS
OVCAR-4 ovarian = test system: OVCAR-4 ovarian
NCI/ADR-RES ovarian = test system: NCI/ADR-RES ovarian
SF-295 CNS = test system: SF-295 CNS
786-0 renal = test system: 786-0 renal
DU-145 prostate = test system: DU-145 prostate
SF-539 CNS = test system: SF-539 CNS
HOP-62 NSCLC = test system: HOP-62 NSCLC
EKVX NSCLC = test system: EKVX NSCLC
HOP-92 NSCLC = test system: HOP-92 NSCLC
NCI-H226 lung = test system: NCI-H226 lung
HCT-15 colon = test system: HCT-15 colon
ACHN renal = test system: ACHN renal
OVCAR-3 ovarian = test system: OVCAR-3 ovarian
HCC-2998 colon = test system: HCC-2998 colon
MDA-MB-231 breast = test system: MDA-MB-231 breast
LOX IMVI melanoma = test system: LOX IMVI melanoma
CCRF-CEM leukemia = test system: CCRF-CEM leukemia
A549 NSCLC = test system: A549 NSCLC
SNB-75 CNS = test system: SNB-75 CNS
HT29 colon = test system: HT29 colon
K-562 leukemia = test system: K-562 leukemia
SW-620 colon = test system: SW-620 colon
NCI-H23 lung = test system: NCI-H23 lung
HL-60(TB) leukemia = test system: HL-60(TB) leukemia
MDA-N = test system: MDA-N
A498 renal = test system: A498 renal
RXF 393 renal = test system: RXF 393 renal
TK-10 renal = test system: TK-10 renal
SNB-19 CNS = test system: SNB-19 CNS
SK-OV-3 ovarian = test system: SK-OV-3 ovarian
PC-3 prostate = test system: PC-3 prostate
NCI-H522 lung = test system: NCI-H522 lung
SK-MEL-28 melanoma = test system: SK-MEL-28 melanoma
UACC-257 melanoma = test system: UACC-257 melanoma
SN12C renal = test system: SN12C renal
MALME-3M melanoma = test system: MALME-3M melanoma
UO-31 renal = test system: UO-31 renal
NCI-H460 lung = test system: NCI-H460 lung
RPMI-8226 leukemia = test system: RPMI-8226 leukemia
IGROV1 ovarian = test system: IGROV1 ovarian
MOLT-4 leukemia = test system: MOLT-4 leukemia
SF-268 CNS = test system: SF-268 CNS
HS 578T breast = test system: HS 578T breast
OVCAR-5 ovarian = test system: OVCAR-5 ovarian
CAKI-1 renal = test system: CAKI-1 renal
HCT-116 colon = test system: HCT-116 colon
BT-549 breast = test system: BT-549 breast
MCF7 breast = test system: MCF7 breast
T-47D breast = test system: T-47D breast
SK-MEL-2 melanoma = test system: SK-MEL-2 melanoma
COLO 205 colon = test system: COLO 205 colon
M14 melanoma = test system: M14 melanoma
UACC-62 melanoma = test system: UACC-62 melanoma
OVCAR-8 ovarian = test system: OVCAR-8 ovarian
SR leukemia = test system: SR leukemia
SK-MEL-5 melanoma = test system: SK-MEL-5 melanoma
DMS 273 small cell lung = test system: DMS 273 small cell lung
M19-MEL melanoma = test system: M19-MEL melanoma
HOP-18 NSCLC = test system: HOP-18 NSCLC
KM20L2 colon = test system: KM20L2 colon
SNB-78 CNS = test system: SNB-78 CNS
DMS 114 small cell lung = test system: DMS 114 small cell lung
LXFL 529 NSCLC = test system: LXFL 529 NSCLC

SMILES: O=C1Nc2ccc(Br)cc2C1=Nc1ccc2c(c1)OCO2
- TGI (MDA-MB-435): 22.4 µM
- TGI (KM12 colon): 44.5 µM
- TGI (U251 CNS): 25.3 µM
- TGI (OVCAR-4 ovarian): 17.1 µM
- TGI (NCI/ADR-RES ovarian): 85.8 µM
- TGI (SF-295 CNS): 78.7 µM
- TGI (786-0 renal): 48.2 µM
- TGI (DU-145 prostate): > 100 µM
- TGI (SF-539 CNS): 37.3 µM
- TGI (HOP-62 NSCLC): 44.5 µM
- TGI (EKVX NSCLC): 74.8 µM
- TGI (HOP-92 NSCLC): > 100 µM
- TGI (NCI-H226 lung): 60.8 µM
- TGI (HCT-15 colon): 53.4 µM
- TGI (ACHN renal): 68.7 µM
- TGI (OVCAR-3 ovarian): 61.8 µM
- TGI (HCC-2998 colon): 30 µM
- TGI (MDA-MB-231 breast): 39.2 µM
- TGI (LOX IMVI melanoma): 64.9 µM
- TGI (CCRF-CEM leukemia): 55.3 µM
- TGI (A549 NSCLC): > 100 µM
- TGI (SNB-75 CNS): 98.4 µM
- TGI (HT29 colon): 39.1 µM
- TGI (K-562 leukemia): 61.6 µM
- TGI (SW-620 colon): 74.1 µM
- TGI (NCI-H23 lung): > 100 µM
- TGI (HL-60(TB) leukemia): 43.6 µM
- TGI (MDA-N): 30.4 µM
- TGI (A498 renal): 97.3 µM
- TGI (RXF 393 renal): 38.9 µM
- TGI (TK-10 renal): 59.6 µM
- TGI (SNB-19 CNS): > 100 µM
- TGI (SK-OV-3 ovarian): > 100 µM
- TGI (PC-3 prostate): 33.6 µM
- TGI (NCI-H522 lung): 43 µM
- TGI (SK-MEL-28 melanoma): > 100 µM
- TGI (UACC-257 melanoma): 34.8 µM
- TGI (SN12C renal): 34.4 µM
- TGI (MALME-3M melanoma): 35.6 µM
- TGI (UO-31 renal): 44.1 µM
- TGI (NCI-H460 lung): 67.9 µM
- TGI (RPMI-8226 leukemia): 63.2 µM
- TGI (IGROV1 ovarian): > 100 µM
- TGI (MOLT-4 leukemia): 50.2 µM
- TGI (SF-268 CNS): > 100 µM
- TGI (HS 578T breast): 98.7 µM
- TGI (OVCAR-5 ovarian): 51.9 µM
- TGI (CAKI-1 renal): 64.5 µM
- TGI (HCT-116 colon): 33.6 µM
- TGI (BT-549 breast): 50.5 µM
- TGI (MCF7 breast): 37 µM
- TGI (T-47D breast): > 100 µM
- TGI (SK-MEL-2 melanoma): 35.3 µM
- TGI (COLO 205 colon): 31.9 µM
- TGI (M14 melanoma): 40.6 µM
- TGI (UACC-62 melanoma): 29.1 µM
- TGI (OVCAR-8 ovarian): > 100 µM
- TGI (SR leukemia): 73.5 µM
- TGI (SK-MEL-5 melanoma): 30 µM

SMILES: COc1ccc(-c2nnc(-c3nsc4ccccc34)o2)cc1
- TGI (KM12 colon): > 100 µM
- TGI (U251 CNS): > 100 µM
- TGI (OVCAR-4 ovarian): > 100 µM
- TGI (DMS 273 small cell lung): > 100 µM
- TGI (SF-539 CNS): > 100 µM
- TGI (M19-MEL melanoma): > 100 µM
- TGI (HOP-62 NSCLC): > 100 µM
- TGI (EKVX NSCLC): > 100 µM
- TGI (HOP-92 NSCLC): > 100 µM
- TGI (HCT-15 colon): > 100 µM
- TGI (ACHN renal): > 100 µM
- TGI (HOP-18 NSCLC): > 100 µM
- TGI (OVCAR-3 ovarian): 92.6 µM
- TGI (HCC-2998 colon): > 100 µM
- TGI (KM20L2 colon): > 100 µM
- TGI (LOX IMVI melanoma): > 100 µM
- TGI (SNB-78 CNS): > 100 µM
- TGI (A549 NSCLC): > 100 µM
- TGI (SNB-75 CNS): 83.4 µM
- TGI (DMS 114 small cell lung): > 100 µM
- TGI (HT29 colon): > 100 µM
- TGI (SW-620 colon): > 100 µM
- TGI (NCI-H23 lung): > 100 µM
- TGI (RXF 393 renal): 93.9 µM
- TGI (TK-10 renal): > 100 µM
- TGI (SNB-19 CNS): > 100 µM
- TGI (SK-MEL-28 melanoma): > 100 µM
- TGI (LXFL 529 NSCLC): > 100 µM
- TGI (UACC-257 melanoma): > 100 µM
- TGI (SN12C renal): > 100 µM
- TGI (UO-31 renal): > 100 µM
- TGI (NCI-H460 lung): > 100 µM
- TGI (RPMI-8226 leukemia): 71.4 µM
- TGI (IGROV1 ovarian): > 100 µM
- TGI (SF-268 CNS): > 100 µM
- TGI (OVCAR-5 ovarian): > 100 µM
- TGI (HCT-116 colon): > 100 µM
- TGI (SK-MEL-2 melanoma): > 100 µM
- TGI (COLO 205 colon): > 100 µM
- TGI (M14 melanoma): > 100 µM
- TGI (UACC-62 melanoma): > 100 µM
- TGI (OVCAR-8 ovarian): > 100 µM
- TGI (SR leukemia): > 100 µM
- TGI (SK-MEL-5 melanoma): > 100 µM

SMILES: CN(C)CCCNc1c2c(nc3ccc(Cl)cc13)CCCC2
- TGI (MDA-MB-435): 32.3 µM
- TGI (KM12 colon): 30.8 µM
- TGI (U251 CNS): 30.1 µM
- TGI (OVCAR-4 ovarian): 43.8 µM
- TGI (NCI/ADR-RES ovarian): 45 µM
- TGI (SF-295 CNS): 29.7 µM
- TGI (786-0 renal): 23.1 µM
- TGI (DU-145 prostate): 31.9 µM
- TGI (SF-539 CNS): 28.5 µM
- TGI (HOP-62 NSCLC): 30.5 µM
- TGI (EKVX NSCLC): 38.3 µM
- TGI (HOP-92 NSCLC): 27.8 µM
- TGI (NCI-H226 lung): 49.7 µM
- TGI (HCT-15 colon): 32.4 µM
- TGI (ACHN renal): 45.5 µM
- TGI (OVCAR-3 ovarian): 34.9 µM
- TGI (HCC-2998 colon): 16.3 µM
- TGI (MDA-MB-231 breast): 31.2 µM
- TGI (LOX IMVI melanoma): 27.3 µM
- TGI (CCRF-CEM leukemia): 43.7 µM
- TGI (A549 NSCLC): 39.6 µM
- TGI (SNB-75 CNS): 30.8 µM
- TGI (HT29 colon): 23.2 µM
- TGI (K-562 leukemia): 12 µM
- TGI (SW-620 colon): 31.8 µM
- TGI (NCI-H23 lung): 30.6 µM
- TGI (HL-60(TB) leukemia): 40.1 µM
- TGI (MDA-N): 26.9 µM
- TGI (A498 renal): 32.6 µM
- TGI (RXF 393 renal): 28.6 µM
- TGI (TK-10 renal): 36.4 µM
- TGI (SNB-19 CNS): 49.4 µM
- TGI (SK-OV-3 ovarian): 66.2 µM
- TGI (PC-3 prostate): 32.8 µM
- TGI (NCI-H522 lung): 26.8 µM
- TGI (SK-MEL-28 melanoma): 35.3 µM
- TGI (UACC-257 melanoma): 30.7 µM
- TGI (SN12C renal): 28.9 µM
- TGI (MALME-3M melanoma): 29.7 µM
- TGI (UO-31 renal): 28 µM
- TGI (NCI-H460 lung): 23.9 µM
- TGI (RPMI-8226 leukemia): 28.7 µM
- TGI (IGROV1 ovarian): 37.5 µM
- TGI (MOLT-4 leukemia): 20.8 µM
- TGI (SF-268 CNS): 28.6 µM
- TGI (HS 578T breast): 40.6 µM
- TGI (OVCAR-5 ovarian): 49 µM
- TGI (CAKI-1 renal): 65.4 µM
- TGI (HCT-116 colon): 21.5 µM
- TGI (BT-549 breast): 43.7 µM
- TGI (MCF7 breast): 25.5 µM
- TGI (T-47D breast): > 73 µM
- TGI (SK-MEL-2 melanoma): 34.5 µM
- TGI (COLO 205 colon): 21.5 µM
- TGI (M14 melanoma): 28.1 µM
- TGI (UACC-62 melanoma): 32.1 µM
- TGI (OVCAR-8 ovarian): 32.9 µM
- TGI (SR leukemia): 6.88 µM
- TGI (SK-MEL-5 melanoma): 27.8 µM
